# Measured values published in PMC6392429 (ACS infectious diseases, 2018).
# Several values for one entry are separate records, joined by “and”; a condition that tells them apart may be missing. Equal entries are not always repeated. Where two headings read alike, the source gives them in different places.
# Assays:
# DENV1 WP74 = assay: Plaque reduction assay, DENV1; type: cell-based, dengue virus serotype 1; conditions: read-out: PRNT50 DENV1
# BHK-21 cells = type: cell-based
# DENV2 NGC [1] = assay: Plaque reduction assay, DENV2; type: cell-based, dengue virus serotype 2; conditions: read-out: PRNT50 DENV2
# [2] = test system: E-mediated fusion of DENV2 virions with liposomes; conditions: for Inhibition of E-mediated fusion: close to IC90
# AmpC β-lactamase = AmpC β-lactamase (Escherichia coli, UniProt P00811)
# Sequence of AmpC β-lactamase (P00811 20-377): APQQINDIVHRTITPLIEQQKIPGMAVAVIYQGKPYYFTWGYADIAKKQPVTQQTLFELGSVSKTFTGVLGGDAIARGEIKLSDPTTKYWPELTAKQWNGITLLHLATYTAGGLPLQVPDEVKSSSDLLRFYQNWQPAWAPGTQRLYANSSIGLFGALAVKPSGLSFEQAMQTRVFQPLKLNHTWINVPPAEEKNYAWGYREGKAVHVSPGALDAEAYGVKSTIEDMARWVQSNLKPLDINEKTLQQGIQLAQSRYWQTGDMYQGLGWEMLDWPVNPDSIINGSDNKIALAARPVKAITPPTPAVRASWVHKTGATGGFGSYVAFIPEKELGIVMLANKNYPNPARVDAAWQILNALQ
# [3] = target: T1, malate dehydrogenase (MDH) (Sus scrofa, UniProt P00346); assay: Malate dehydrogenase; type: biochemical
# T1 sequence (P00346 25-338): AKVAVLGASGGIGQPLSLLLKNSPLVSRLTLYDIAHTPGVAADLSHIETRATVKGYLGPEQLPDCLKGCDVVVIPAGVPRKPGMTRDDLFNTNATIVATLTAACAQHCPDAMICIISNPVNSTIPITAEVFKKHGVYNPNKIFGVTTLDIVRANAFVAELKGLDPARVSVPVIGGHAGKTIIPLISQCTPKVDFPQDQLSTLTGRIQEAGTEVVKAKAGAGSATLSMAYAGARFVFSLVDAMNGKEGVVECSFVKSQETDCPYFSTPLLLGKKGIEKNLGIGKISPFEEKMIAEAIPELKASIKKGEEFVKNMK
# DENV4 TVP360 = assay: Plaque reduction assay, DENV4; type: cell-based, dengue virus serotype 4; conditions: read-out: PRNT50 DENV4
# [4] = Dynamic light scattering, particle size; type: physicochemical
# ZIKV PF-251013–18 = assay: Plaque reduction assay, ZIKV; conditions: read-out: PRNT50 ZIKV
# [5] = Microsome stability in vitro; type: in vitro ADME; conditions: mouse microsomes in vitro
# DENV3 THD3 = assay: Plaque reduction assay, DENV3; type: cell-based, dengue virus serotype 3; conditions: read-out: PRNT50 DENV3
# DENV2 sE2 [6] = target: T2, DENV2 sE2 (Dengue virus type 2, UniProt P14340); conditions: biolayer interferometry
# VSV-eGFP = type: cell-based, vesicular stomatitis virus
# DENV2 sE2 [7] = target: T2, DENV2 sE2; conditions: assay optimisation, Figure S1
# DENV2 NGC [8] = assay: Viral infectivity assay; type: cell-based, dengue virus serotype 2 New Guinea C; conditions: negative control compound
# [9] = read-out: IC50 AmpC no TritonX, no Triton X-100
# [10] = read-out: IC50 AmpC with TritonX, with 0.01% Triton X-100
# [11] = read-out: IC50 MDH no TritonX, no Triton X-100
# [12] = read-out: IC50 MDH with TritonX, with 0.01% Triton X-100
SMILES,"IC50 (DENV1 WP74; BHK-21 cells, scored) [µM]",IC50 (DENV1 WP74; bound stated) [µM],CC50 (BHK-21 cells) [µM],"IC50 (DENV2 NGC [1]; BHK-21 cells, scored) [µM]",IC50 (DENV2 NGC [1]; bound stated) [µM],IC50 (AmpC β-lactamase; [9]) [µM],IC50 (AmpC β-lactamase; [10]) [µM],"IC50 [3, 11] [µM]","IC50 [3, 12] [µM]","IC50 (DENV4 TVP360; BHK-21 cells, scored) [µM]",IC50 (DENV4 TVP360; bound stated) [µM],Particle size at 40 μM with Tween20 [4] [nm],Particle size at 40 μM without Tween20 [4] [nm],"IC50 (ZIKV PF-251013–18; Vero cells, scored) [µM]",IC50 (ZIKV PF-251013–18; bound stated) [µM],T1/2 (Microsome stability) [5] [min],IC50 (DENV3 THD3; bound stated) [µM],Kd (DENV2 sE2 [6]) [µM],"IC50 (DENV3 THD3; BHK-21 cells, scored) [µM]",further results
CN(CC(=O)N(Cc1ccc(C2CCCCC2)cc1)c1ccc(C(=O)O)cc1)S(=O)(=O)c1c(F)c(F)c(F)c(F)c1F [S7337],< 1,≤ 1,13 ± 5,< 1,≤ 1,> 100,> 100,86.4,> 100,< 1,≤ 1,8.2,144,1 to 10,≤ 10,3.2,≤ 10,1.3 ± 0.5,–,Inhibition of E-mediated fusion ([2]; 3 μM): inhibit E-mediated fusion
Cc1cc(C(C#N)c2ccc(Cl)cc2)c(Cl)cc1NC(=O)c1cc(I)cc(I)c1O (stereo not drawn) [S4105],< 1,≤ 1,50 ± 15,< 1,≤ 1,19.5,> 100,0.3,> 100,< 1,≤ 1,13.1,82,< 1,≤ 1,> 120,≤ 10,0.9 ± 0.3,1 to 10,"Inhibition of viral fusion (protection of core from trypsin digestion) ([2]; at 5, 1, and 0.5 μM, Western blot): inhibit viral fusion in a concentration-dependent manner; Inhibition % vs. VSV-eGFP (VSV-eGFP): 64% and 60%"
"CN1CCN(c2ccc(Nc3cc(Oc4ccccc4)ncn3)cc2)CC1 [JW-068, N−[4-(4-Methylpiperazin-1-yl)phenyl]-6-phenoxypyrimidin-4-amine]",–,–,–,–,–,–,–,–,–,–,–,–,–,–,–,–,–,–,–,Competition with GNF2-biotin for binding to sE2 (DENV2 sE2 [7]): absence of competition; Inhibition of DENV2 infection (DENV2 NGC [8]): does not inhibit DENV2 infection
COc1cc(C(=O)NS(=O)(=O)c2ccccc2C)ccc1Cc1cn(C)c2ccc(NC(=O)OC3CCCC3)cc12 [S1633],1 to 10,–,50 ± 3,1 to 10,–,36.6,> 100,48.2,> 100,1 to 10,–,9.2,823,> 10,–,37.7,–,5.2 ± 2.1,> 10,Inhibition of E-mediated fusion ([2]; 10 μM): inhibit E-mediated fusion
